# Assay results taken from patent US8388931B2, “99m Tc-labeled triphenylphosphonium derivative contrasting agents and molecular probes for early detection and imaging of breast tumors” (priority 2008, dated 2013).
# How the values were obtained:
# [1] = Comparative study: myocardial and hepatic uptake of 99mTc-MIBI versus 99mTc-Mito10-MAG3; assay type: in vivo, rats; conditions: rats
# Method: (§1) ^99mTc-MIBI of clinical formulation was purchased from Bristol Myers Squibb. […] Dynamic images were acquired in identical fashion following 99mTc-MIBI injection.
# In a comparative study, the myocardial uptake of ^99mTc-MIBI peaked at 2.70±0.4% ID/g within minutes after injection, and remained above 2.41±0.3% ID/g for at least 90 min. Comparatively, the myocardial uptake level of ^99mTc-Mito10-MAG 3 is 10, 40, and 120 fold lower than the uptake level of ^99mTc-MIBI at 3, 10 and 30 min after injection. The hepatic uptake of ^99mTc-MIBI was at 0.37±0.14% ID/g at 30 min after injection.
# [2] = Radio-stability in physiological buffer by radioHPLC; assay type: physicochemical
# Method: Mito10-MAG3 was radiolabeled with ^99mTc, using a protocol previously reported with minor modifications. Specifically, an aliquot of Mito10-MAG3 (30 μg) was re-suspended in 450 μl of freshly prepared labeling solution containing 7.5 mg tartaric acid, 9.5 mg ammonium acetate, 10 μg stannous chloride, pH 8.3. After the addition of ^99mTc pertechnetate (3 mCi), the labeling mixture was incubated at 65° C. for one hour. For quality control purposes, the radiolabeled product was routinely analyzed by radioHPLC (4.6×250 mm C18 reversed phase column) at room temperature, with the following method.
# Buffer A contained 10 mM phosphate buffer (pH 6.8) and buffer B contained 100% acetonitrile. A baseline of 90% A and 10% B was run for 10 min, followed by a linear gradient with the mobile phase reaching 10% A and 90% B at 40 min. To determine the radio-stability, the radiopharmaceutical was maintained in physiological buffer for up to 48 hours, and the radiochemical purity was examined by radioHPLC.
# [3] = test system: DMBA-induced breast carcinoma; assay: In vivo gamma camera imaging of DMBA-induced breast carcinoma in rats; parameters: species or system rats (female Sprague Dawley)
# Method: The animal protocol was approved by institutional IACUC review and followed NIH guidelines. The rat model of DMBA-induced breast carcinoma was used.
# As an initial feasibility study, rats were induced with 65 mg/kg DMBA dissolved in sesame oil via a single oral gavage to the stomach. […] Static images were acquired on a GE XRT gamma camera using a high-resolution parallel-hole collimator, 512×512 matrix size, 22.5×22.5 cm field of view, 140±15 keV energy window, 100 k counts. Unexpectedly, apart from the established palpable carcinomas, additional small (millimeter size) tumors were discovered by this imaging technique in the same animals. This finding promoted a longitudinal study to investigate the early detection of neoplastic growth using ^99mTc-Mito10-MAG3.
# Six 48-day-old female rats were injected with 65 mg/kg DMBA. At each week after DMBA induction, the rats were imaged using the following protocol. Each rat was anesthetized with 1.6% isoflurane in room air supplemented with oxygen. […] Dynamic images were continuously acquired at one frame per min for 90 min using the imaging parameters set forth hereinabove. The weekly imaging regiment was continued for all six rats until palpable tumors became detectable, which typically takes place between seven to nine weeks after the administration of DMBA. Due to the relatively short physical half-life of ^99mTc (6 hr), no residual signal, therefore, no cross-contamination is detectable from the previous injection the week before.
# as §1
# The female Sprague Dawley rats have six pairs of mammary glands, among which glands a and b are away from the hepatic/gastrointestinal region. (FIG. 9, Panel A). Since the typical biodistribution of a lipophilic radiopharmaceutical in the abdominal region precludes reliable imaging of breast tissues below the diaphragm, mammary glands shown in Panels C, D, E and F were excluded from the data analysis. This exclusion also was based on the fact that such spatial distribution of mammary glands is irrelevant to that of the human anatomy.
# Imaging data analysis was carried out using an inbuilt software, by carefully drawing a region of interest (ROI) on the tumor site to determine the radioactivity counts in the ROI. […] Radioactivity counts were determined in each ROI. Tumor-to-normal and tumor-to-muscle ratios were calculated as the count ratio between the two ROIs.
# The rats were sacrificed by CO2 asphyxiation and the number and location of the mammary tumors were recorded at necropsy. The tumors were dissected, with the diameter and weight measured and documented. […]
compound,measurement,setting,value
CC(=O)[S+]1CC(=O)[N]2CC(=O)[N]3CC(=O)[N](CC(=O)NCCCCCCCCCC[P+](c4ccccc4)(c4ccccc4)c4ccccc4)[99Tc]321=[O].[Br-] (centres unmarked) [^99mTc-Mito10-MAG3],reduction of uptake in the myocardium compared to 99mTc-MIBI,[1],one to two orders of magnitude
same,time radioactivity bound to Mito10-MAG3 remained persistent after labeling,"[2]; physiological solution, radioHPLC",at least 48 hours
same,change in radiochemical purity after radiolabeling,"[2]; radioHPLC at 0, 24 and 48 hr after radiolabeling",no significant change in radiochemical purity
same,uptake in small breast tumors that escaped detection by palpation,"[3]; 15 μg via tail vein, gamma camera",significant focal uptake
same,weight of small non-palpable tumor detected by imaging,"[3]; feasibility experiment, 11 weeks after DMBA induction, at dissection",18 mg
